Reference: ChEMBL document CHEMBL4739717, “Methods of treating cartilage disorders through inhibition of clk and dyrk” (2020)

Key:
[1] = Effect on Wnt signaling pathway in human SW480 cells harbouring TCF/LEF luciferase reporter gene and SP5-Luc reporter gene incubated for 36 to 48 hrs by luminescence assay; assay type: cell-based
[2] = target: Dual specificity tyrosine-phosphorylation-regulated kinase 1A (Homo sapiens, UniProt Q13627); assay: Inhibition of recombinant DYRK1A (unknown origin) using Ser/Thr 18 peptide as substrate incubated for 1 hr in presence of ATP by FRET assay
[3] = Induction of chondrogenesis in human MSC assessed as incubated for 6 days by rhodamine B and Nile red staining based imaging analysis; assay type: functional; conditions: bmmsc
[4] = Inhibition of IL1-beta induced MMP3 expression levels in human chondrocytes assessed as MMP3 levels incubated for 2hrs followed by IL1-beta stimulation and measured after overnight incubation by LANCE assay; assay type: functional, cell-based; conditions: Chondrocyte

| SMILES | EC50 [1] | EC50 [2] | EC50 [3] | EC50 [4] |
| --- | --- | --- | --- | --- |
| CCNCc1cncc(-c2ccc3[nH]nc(-c4cc5cnccc5[nH]4)c3c2)c1 | 1040 nM | 3 nM | 10 nM | – |
| O=C(Nc1ccnnc1)c1n[nH]c2ccc(-c3cncc(CN4CCCCC4)c3)cc12 | 40 nM | 1 nM | – | – |
| CN1CCN(c2cc(C(=O)Nc3cc4cc(-c5cnn(C)c5N)ccc4cn3)ccn2)CC1 | – | – | – | 11.5 nM |
| CC(C)CC(=O)Nc1cncc(-c2ccc3[nH]nc(-c4nc5c(N6CCN(C)CC6)cccc5[nH]4)c3c2)c1 | 268 nM | 5 nM | – | – |
| CN1CCC(n2cc(C(=O)Nc3ncc4ccc(-c5cncc6[nH]ccc56)cc4n3)cn2)CC1 | 1400 nM | – | – | 3000 nM |
| CN1CCN(c2cc(C(=O)Nc3cc4nc(-c5cnn(C)c5)ccc4cn3)ccn2)CC1 | 102 nM | – | – | 3000 nM |
| O=C(Nc1ccc2c(c1)OCCO2)c1n[nH]c2ccc(-c3cncc(CN4CCCCC4)c3)cc12 | 125 nM | 3 nM | – | – |
| Cn1cc(-c2ccc3cnc(NC(=O)c4ccc5nccnc5c4)cc3n2)cn1 | 447 nM | – | – | 3000 nM |
| O=C(Nc1ccc(-c2ccccc2)nc1)c1n[nH]c2ccc(-c3cncc(CN4CCCCC4)c3)cc12 | 101 nM | 7 nM | – | – |
| Cn1cc(-c2ccc3cnc(NC(=O)c4ccc5cnccc5c4)cc3c2)cn1 | – | – | – | 3000 nM |
| CCNCc1cncc(-c2cnc3[nH]nc(-c4cc5c(-c6cc(F)cc(CNS(C)(=O)=O)c6)nccc5[nH]4)c3c2)c1 | > 10000 nM | 30 nM | 300 nM | – |
| CC(C)OC(=O)N1CCC(n2cc(C(=O)Nc3cc4cc(-c5cnn(C)c5)ncc4cn3)cn2)CC1 | 824 nM | – | – | 154 nM |
| CN(C)C(=O)Nc1cncc(-c2ccc3[nH]nc(C(=O)Nc4cccnc4)c3c2)c1 | 176 nM | 1 nM | – | – |
| Cc1n[nH]c2ccc(-c3cncc(N[C@H]4CC[C@H](O)CC4)n3)cc12 | 95 nM | 1 nM | – | – |
| O=C(Nc1ccnnc1)c1n[nH]c2ccc(-c3cccnc3)cc12 | 106 nM | 1 nM | – | – |
| CN1CCN(c2cc(C(=O)Nc3cc4cc(-c5cnn(C6CC6)c5)ccc4cn3)ccn2)CC1 | – | – | – | 12.2 nM |
| CC(C)Nc1cncc(-c2ccc3cnc(NC(=O)C4CCN(CCF)CC4)cc3c2)n1 | 178 nM | – | – | – |
| CC(C)CC(=O)Nc1cncc(-c2cnc3[nH]nc(-c4cc5c(-c6cc(F)cc(CNS(C)(=O)=O)c6)nccc5[nH]4)c3c2)c1 | 1510 nM | 19 nM | 300 nM | – |
| CNc1nc(NCc2ncccn2)c2c(-c3ccc4ncccc4c3)c[nH]c2n1 | 73.3 nM | 7 nM | – | – |
| CN1CCC2(CC1)CN(c1cc(C(=O)Nc3cc4cc(-c5cnn(C)c5CN5CCCCC5)cnc4cn3)ccn1)C2 | 607 nM | – | – | 3000 nM |
| CS(=O)(=O)NCc1cc(F)cc(-c2nccc3[nH]c(-c4n[nH]c5ncc(-c6cncc(NC(=O)C7CCC7)c6)cc45)cc23)c1 | 3640 nM | 16 nM | 300 nM | – |
| Fc1cccc(-c2cncc3[nH]c(-c4n[nH]cc4C#Cc4cncc(OC5CCNCC5)c4)nc23)c1 | 4640 nM | 56 nM | – | – |
| CN(C)C1CCN(c2cc(C(=O)Nc3cc4cc(-c5cnn(C)c5)ccc4cn3)ccn2)CC1 | – | – | – | 697 nM |
| CC(C)OC(=O)N1CCC(n2cc(C(=O)Nc3cc4cc(-c5cnn(C)c5)ccc4cn3)cn2)CC1 | 54.5 nM | – | – | 88.1 nM |
| CN1CCC(n2cc(C(=O)Nc3cc4cc(-c5cnc6cc[nH]c6c5)ccc4cn3)cn2)CC1 | 26.8 nM | – | – | 3000 nM |
| Cn1cc(-c2ccc3cnc(NC(=O)c4ccc5c(c4)CNCC5)cc3c2)cn1 | – | – | – | 1630 nM |

| SMILES | EC50 [1] | EC50 [2] | EC50 [3] | EC50 [4] |
| --- | --- | --- | --- | --- |
| O=C(Nc1cc2cc(-c3cncc(NC4CCNCC4)n3)ccc2cn1)C1CCCCC1 | 319 nM | – | – | 3000 nM |
| CN1CCN(c2ccc(C(=O)Nc3cc4cc(-c5cnn6c5CN(CCF)CC6)ccc4cn3)cn2)CC1 | – | – | – | 3000 nM |
| O=C(Nc1cnccc1NC(=O)C1CC1)c1n[nH]c2ccc(-c3cccnc3)cc12 | 68 nM | 6 nM | – | – |
| CN(C)CCN(C)c1ccc(NC(=O)c2n[nH]c3ccc(-c4cncc(CN5CCCCC5)c4)cc23)cn1 | 65 nM | 1 nM | – | – |
| Nc1cncc(-c2cnc3[nH]nc(-c4cc5c(-c6ccncc6)cncc5[nH]4)c3c2)c1 | > 10000 nM | 3 nM | – | – |
| CN1Cc2ccc(C(=O)Nc3cc4cc(-c5cncn5C)ccc4cn3)cc2C1 | – | – | – | 3000 nM |
| CC(C)(C)C(=O)Nc1cncc(-c2ccc3[nH]nc(-c4nc5c(-c6ccc(F)cc6)cncc5[nH]4)c3c2)c1 | 4 nM | 55 nM | 100 nM | – |
| COc1cncc(-c2cc3c(-c4nc5c(-c6cccc(F)c6)cncc5[nH]4)n[nH]c3cn2)c1 | 31.3 nM | 26 nM | 300 nM | – |
| O=C(Nc1cncc(-c2ccc3[nH]nc(-c4cc5c(-c6cccnc6)nccc5[nH]4)c3c2)c1)c1ccccc1 | 421 nM | 19 nM | – | – |
| Cc1cc(C(=O)Nc2cc3cc(-c4cnn(C)c4)ccc3cn2)cc(N2CCN(C)CC2)n1 | – | – | – | 3000 nM |
| CC(C)n1cc(C(=O)Nc2cc3cc(-c4cncn4C(C)C)ccc3cn2)cn1 | 115 nM | – | – | 4.6 nM |
| CN1CCN(c2ccc(NC(=O)c3n[nH]c4ccc(-c5cncc(NC(=O)C6CC6)c5)cc34)cn2)CC1 | 80 nM | 1 nM | – | – |
| CN1CCN(c2ccc(C(=O)Nc3cc4cc(-c5cnn(C)c5)ccc4cn3)cn2)CC1 | – | – | – | 9.5 nM |
| Cn1ncc(-c2ccc3cnc(NC(=O)c4ccc(OC(F)F)cc4)cc3c2)c1CO | – | – | – | 1370 nM |
| CN1CCN(c2cc(C(=O)Nc3ncc4ccc(-c5cnn(C)c5)cc4n3)ccn2)CC1 | 468 nM | – | – | 417 nM |
| CN(C)Cc1cncc(-c2cnc3[nH]nc(-c4nc5c(-c6ccsc6)cccc5[nH]4)c3c2)c1 | 32 nM | 83 nM | 300 nM | – |
| O=C(Nc1cc2cc(-c3cncc(NCC4(F)CNC4)n3)ccc2cn1)C1CC1 | 119 nM | – | – | 897 nM |
| O=C(Nc1ccc(N2CCC(O)CC2)nc1)c1n[nH]c2ccc(-c3cncc(CN4CCCCC4)c3)cc12 | 49 nM | 1 nM | – | – |
| CC(C)CC(=O)Nc1cncc(-c2cc3c(-c4cc5c(-c6cc(F)cc(CNS(C)(=O)=O)c6)cncc5[nH]4)n[nH]c3cn2)c1 | > 10000 nM | 99 nM | – | – |
| O=C(Nc1cnccn1)c1n[nH]c2ccc(-c3cncc(CN4CCCCC4)c3)cc12 | 289 nM | 1 nM | – | – |
| Cc1ncc(NC(=O)c2n[nH]c3ccc(-c4cnc(C)n4C)cc23)s1 | 335 nM | 4 nM | – | – |
| CN1CCN(c2cc(C(=O)Nc3cc4cc(-c5cnn(C)c5)c(F)cc4cn3)ccn2)CC1 | – | – | – | 0.4 nM |
| CN1CCC(n2cc(C(=O)Nc3cc4cc(-c5cnn(C)c5)ccc4cn3)cn2)CC1 | 14 nM | – | – | – |
| CN(C)CCNc1cc(C(=O)Nc2cc3cc(-c4cnn(C)c4)ccc3cn2)ccn1 | – | – | – | 306 nM |
| CN(C)Cc1cncc(NC(=O)c2n[nH]c3ccc(-c4cncc(CN5CCCC5)c4)cc23)c1 | 330 nM | 2 nM | – | – |
| NC(=O)c1n[nH]c2ccc(-c3cncc(CN4CCCCC4)c3)cc12 | 1960 nM | – | – | 2.3 nM |

| SMILES | EC50 [1] | EC50 [2] | EC50 [3] | EC50 [4] |
| --- | --- | --- | --- | --- |
| O=C(Nc1cccnc1)c1n[nH]c2ccc(-c3cncc(NC(=O)N4CCOCC4)c3)cc12 | 1250 nM | 2 nM | – | – |
| O=C(NCc1cc(F)cc(F)c1)c1n[nH]c2ccc(-c3cncc(CN4CCCCC4)c3)cc12 | 1820 nM | – | – | 3000 nM |
| NC1CN(c2cc(C(=O)Nc3cc4cc(-c5cnco5)ccc4cn3)ccn2)C1 | – | – | – | 3000 nM |
| Cc1cc2[nH]nc(C(=O)Nc3ccc(CN4CCCC4)cc3)c2cc1-c1cccnc1 | 1090 nM | – | – | – |
| Cc1n[nH]c2ccc(-c3cncc(OC[C@@H](N)Cc4ccccc4)c3)cc12 | 262 nM | – | – | 3000 nM |
| O=C(Nc1cc2cc(-c3cncc(NCC4(F)CNC4)n3)ncc2cn1)C1CC1 | 383 nM | – | – | – |
| Cn1cncc1-c1ccc2cnc(NC(=O)c3ccnc(N4CCN(C5CC5)CC4)c3)cc2c1 | – | – | – | 3000 nM |
| CN1CC=C(c2cc(C(=O)Nc3cc4cc(-c5cncc(NC(C)(C)C)n5)cnc4cn3)ccn2)CC1 | 357 nM | – | – | 3000 nM |
| CC(C)CC(=O)Nc1cncc(-c2cnc3[nH]nc(-c4cc5c(-c6cc(F)cc(CNS(C)(=O)=O)c6)cncc5[nH]4)c3c2)c1 | 2510 nM | 16 nM | – | – |
| Cc1ncc(C(=O)Nc2cc3nc(-c4cnc(C)n4C)ccc3cn2)s1 | 107 nM | – | – | 8.7 nM |
| Cc1ncc(-c2ccc3cnc(NC(=O)c4ccc(OC(C)C)cc4)cc3c2)n1C | – | – | – | 10.5 nM |
| CN1CCC2(CC1)CN(c1cc(C(=O)Nc3cc4cc(-c5cnn(C)c5)ccc4cn3)ccn1)C2 | – | – | – | 3000 nM |
| CN1CCC2(CC1)CN(c1cc(C(=O)Nc3cc4cc(-c5cnn(C)c5CO)ccc4cn3)ccn1)C2 | – | – | – | 3000 nM |
| CN(C)Cc1ccc(C(=O)Nc2cc3cc(-c4cnn(C)c4)ccc3cn2)cc1 | – | – | – | 47.4 nM |
| CN(C)CCOc1cncc(-c2cnc3[nH]nc(-c4nc5c(-c6cccc(F)c6)nccc5[nH]4)c3c2)c1 | 253 nM | 5 nM | – | – |
| CN1CCN(c2cc(C(=O)Nc3cc4c(Cl)c(-c5cnn(C)c5)ccc4cn3)ccn2)CC1 | – | – | – | 898 nM |
| CN1CCN(c2cc(C(=O)Nc3cc4cc(-c5cnc(N)s5)ccc4cn3)ccn2)CC1 | – | – | – | 0.4 nM |
| O=C(Nc1cc2cc(-c3cncs3)ccc2cn1)c1ccc2c(c1)CNCC2 | – | – | – | 3000 nM |
| CS(=O)(=O)NCc1cc(F)cc(-c2nccc3[nH]c(-c4n[nH]c5ncc(-c6cncc(OCc7ccccc7)c6)cc45)cc23)c1 | 3990 nM | 97 nM | – | – |
| O=C(Nc1cc2cc(-c3cncc(NC4CCNCC4)n3)ccc2cn1)C1CC(F)(F)C1 | 381 nM | – | – | – |
| CN1CCN(Cc2ccc(NC(=O)c3n[nH]c4ccc(-c5cccnc5)cc34)cn2)CC1 | 37 nM | 1 nM | – | – |
| CN1CCCN(c2cc(C(=O)Nc3cc4cc(-c5cnn(C)c5)ccc4cn3)ccn2)CC1 | – | – | – | 3000 nM |
| CN1CCc2cc(C(=O)Nc3cc4cc(-c5cn(C)nn5)ccc4cn3)ccc2C1 | – | – | – | 3000 nM |
| CCCC(=O)Nc1cncc(-c2cc3c(-c4nc5c(-c6cccc(F)c6)nccc5[nH]4)n[nH]c3cn2)c1 | 18.8 nM | 53 nM | 10 nM | – |
